Source: PubChem BioAssay AID2060889 (Molecular Pharmacology Branch, DTP, NCI, 2025)

Test system: LG0567-F671-PDC complex spheroids viability
Assay: Anticancer human tumor LG0567-F671-PDC patient-derived lung adenocarcinoma cell line growth inhibition [RAS]
Settings: for IC50: curve of first compound; for viability, T/C: stronger effect = lower value; active = viability on the fitted dose curve at most 10% of control; inactive = the rest
Method in brief: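 Tumour cells grown as complex spheroids with HUVEC endothelial cells and mesenchymal stem cells, treated with RAS pathway inhibitor combinations. Each agent spans half-log steps from near clinical Cmax, or 10 microM where Cmax is unknown.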
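Note: spheroids exposed to compound for seven days before readout.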
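Throughout, for IC50: luminescence signal used as a proxy for viable cells.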

CCN1CCN(Cc2ccc(Nc3ncc(F)c(-c4cc(F)c5nc(C)n(C(C)C)c5c4)n3)nc2)CC1 + C=CC(=O)N1CCN(c2nc(OCC3CCCN3C)nc3c(F)c(-c4nc(N)cc(C)c4C(F)(F)F)c(Cl)cc23)C(C)C1
< 3.16 nM: IC50 (second compound 0.00316 µM) | IC50 (second compound 0.01 µM) | IC50 (second compound 0.0316 µM) | IC50 (second compound 0.1 µM) | IC50 (second compound 0.316 µM) | IC50 (second compound 1 µM)
inactive: viability, T/C (second compound 0.00316 µM, first compound 0.00316 µM) 16.6% | viability, T/C (second compound 0.00316 µM, first compound 0.01 µM) 14.9% | viability, T/C (second compound 0.00316 µM, first compound 0.0316 µM) 13.7% | viability, T/C (second compound 0.00316 µM, first compound 0.1 µM) 14.2% | viability, T/C (second compound 0.00316 µM, first compound 0.316 µM) 16.6% | viability, T/C (second compound 0.00316 µM, first compound 1 µM) 22% | viability, T/C (second compound 0.01 µM, first compound 0.00316 µM) 13.5% | viability, T/C (second compound 0.01 µM, first compound 0.01 µM) 14.1% | viability, T/C (second compound 0.01 µM, first compound 0.0316 µM) 14.4% | viability, T/C (second compound 0.01 µM, first compound 0.1 µM) 11.8% | viability, T/C (second compound 0.01 µM, first compound 0.316 µM) 14.9% | viability, T/C (second compound 0.01 µM, first compound 1 µM) 20.2% | viability, T/C (second compound 0.0316 µM, first compound 0.00316 µM) 14.8% | viability, T/C (second compound 0.0316 µM, first compound 0.01 µM) 13.1% | viability, T/C (second compound 0.0316 µM, first compound 0.0316 µM) 11.7% | viability, T/C (second compound 0.0316 µM, first compound 0.1 µM) 12.4% | viability, T/C (second compound 0.0316 µM, first compound 0.316 µM) 14.3% | viability, T/C (second compound 0.0316 µM, first compound 1 µM) 21.2% | viability, T/C (second compound 0.1 µM, first compound 0.00316 µM) 11.7% | viability, T/C (second compound 0.1 µM, first compound 0.01 µM) 11.5% | viability, T/C (second compound 0.1 µM, first compound 0.0316 µM) 12.4% | viability, T/C (second compound 0.1 µM, first compound 0.1 µM) 11.5% | viability, T/C (second compound 0.1 µM, first compound 0.316 µM) 15% | viability, T/C (second compound 0.1 µM, first compound 1 µM) 18.1% | viability, T/C (second compound 0.316 µM, first compound 0.00316 µM) 12.7% | viability, T/C (second compound 0.316 µM, first compound 0.01 µM) 13.1% | viability, T/C (second compound 0.316 µM, first compound 0.0316 µM) 11.9% | viability, T/C (second compound 0.316 µM, first compound 0.1 µM) 11.3% | viability, T/C (second compound 0.316 µM, first compound 0.316 µM) 13.8% | viability, T/C (second compound 0.316 µM, first compound 1 µM) 17.2% | viability, T/C (second compound 1 µM, first compound 0.00316 µM) 13.4% | viability, T/C (second compound 1 µM, first compound 0.01 µM) 14.9% | viability, T/C (second compound 1 µM, first compound 0.0316 µM) 12.6% | viability, T/C (second compound 1 µM, first compound 0.1 µM) 13.7% | viability, T/C (second compound 1 µM, first compound 0.316 µM) 16.1% | viability, T/C (second compound 1 µM, first compound 1 µM) 20.9%

CCC(CC)c1cc(NC2CCC(N)C2)n2nccc2n1 (centres undefined) + CCn1c(-c2cccnc2C(C)OC)c2c3cc(ccc31)N1CCOC(CC(NC(=O)C(C(C)C)N(C)C(=O)C3(F)CCN(C(=O)C#CC(C)(C)N(C)C)CC3)C(=O)N3CCCC(N3)C(=O)OCC(C)(C)C2)C1
< 31.6 nM: IC50 (second compound 0.000949 µM) | IC50 (second compound 0.003 µM) | IC50 (second compound 0.00949 µM) | IC50 (second compound 0.03 µM) | IC50 (second compound 0.0949 µM) | IC50 (second compound 0.3 µM)
inactive: viability, T/C (second compound 0.000949 µM, first compound 0.0316 µM) 21.2% | viability, T/C (second compound 0.000949 µM, first compound 0.1 µM) 16.6% | viability, T/C (second compound 0.000949 µM, first compound 0.316 µM) 13.3% | viability, T/C (second compound 0.000949 µM, first compound 1 µM) 13.9% | viability, T/C (second compound 0.003 µM, first compound 0.0316 µM) 14.1% | viability, T/C (second compound 0.003 µM, first compound 0.1 µM) 16.1% | viability, T/C (second compound 0.003 µM, first compound 0.316 µM) 14.6% | viability, T/C (second compound 0.00949 µM, first compound 0.0316 µM) 13.7% | viability, T/C (second compound 0.00949 µM, first compound 0.1 µM) 15% | viability, T/C (second compound 0.00949 µM, first compound 0.316 µM) 13.3% | viability, T/C (second compound 0.03 µM, first compound 0.0316 µM) 13.2% | viability, T/C (second compound 0.03 µM, first compound 0.1 µM) 13.2% | viability, T/C (second compound 0.03 µM, first compound 0.316 µM) 11.8% | viability, T/C (second compound 0.0949 µM, first compound 0.0316 µM) 10.6% | viability, T/C (second compound 0.0949 µM, first compound 0.1 µM) 12.2% | viability, T/C (second compound 0.3 µM, first compound 0.0316 µM) 8.88%
active: viability, T/C (second compound 0.000949 µM, first compound 3.16 µM) 4.31% | viability, T/C (second compound 0.000949 µM, first compound 10 µM) 0.82% | viability, T/C (second compound 0.003 µM, first compound 1 µM) 13.5% | viability, T/C (second compound 0.003 µM, first compound 3.16 µM) 4.44% | viability, T/C (second compound 0.003 µM, first compound 10 µM) 0.75% | viability, T/C (second compound 0.00949 µM, first compound 1 µM) 14.2% | viability, T/C (second compound 0.00949 µM, first compound 3.16 µM) 3.48% | viability, T/C (second compound 0.00949 µM, first compound 10 µM) 0.89% | viability, T/C (second compound 0.03 µM, first compound 1 µM) 12.3% | viability, T/C (second compound 0.03 µM, first compound 3.16 µM) 3.67% | viability, T/C (second compound 0.03 µM, first compound 10 µM) 0.88% | viability, T/C (second compound 0.0949 µM, first compound 0.316 µM) 10.4% | viability, T/C (second compound 0.0949 µM, first compound 1 µM) 12% | viability, T/C (second compound 0.0949 µM, first compound 3.16 µM) 4.19% | viability, T/C (second compound 0.0949 µM, first compound 10 µM) 1% | viability, T/C (second compound 0.3 µM, first compound 0.1 µM) 7.92% | viability, T/C (second compound 0.3 µM, first compound 0.316 µM) 8.86% | viability, T/C (second compound 0.3 µM, first compound 1 µM) 9.25% | viability, T/C (second compound 0.3 µM, first compound 3.16 µM) 3.79% | viability, T/C (second compound 0.3 µM, first compound 10 µM) 0.7%
